Source: patent publication US12006321B2, “Substituted pyrazolo[1,5-a]pyrimidines as apelin receptor agonists” (Sanford Burnham Prebys Medical Discovery Institute, priority 2017, dated 2024)

target: T1, human apelin receptor (APJ, APLNR) (Homo sapiens, UniProt P35414); test: cell-based cAMP assay (TR-FRET) in Chinese hamster ovary cells expressing the apelin receptor; conditions: EC50 = 50% of control (apelin-13, 1 nM) response; cAMP in CHO cells, 0.5 h incubation; read-out: Potency Category
T1 construct: host or cells: Chinese hamster ovary (CHO) cells, stably integrated receptor
T1 sequence (P35414 1-380): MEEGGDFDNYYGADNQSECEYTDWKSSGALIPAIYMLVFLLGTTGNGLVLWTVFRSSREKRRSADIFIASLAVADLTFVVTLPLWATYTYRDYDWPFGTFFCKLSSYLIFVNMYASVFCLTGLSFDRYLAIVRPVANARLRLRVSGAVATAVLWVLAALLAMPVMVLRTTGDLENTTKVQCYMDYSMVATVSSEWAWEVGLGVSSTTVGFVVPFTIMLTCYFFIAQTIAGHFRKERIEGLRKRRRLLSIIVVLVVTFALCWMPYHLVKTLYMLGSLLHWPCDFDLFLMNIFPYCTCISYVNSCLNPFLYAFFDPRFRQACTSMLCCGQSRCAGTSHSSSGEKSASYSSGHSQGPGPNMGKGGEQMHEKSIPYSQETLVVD
Description: This example illustrates the biological activity of various compounds tested against the APJ receptor.
Commercially available cell lines were used to screen chemical libraries to identify compounds that potently and selectively activated the human apelin receptor. The assays disclosed herein were performed using cell lines from DiscoveX, Inc.
Biological activity was determined to the cell-based assay. This assay detects activation of the receptor by reporting on intracellular cyclic adenosine monophosphate (cAMP) level. Chinese hamster ovary cells engineered to express the stably integrated human appellant receptor (APJ, AGTRL-one, APLNR), pleaded into the wells of the microtiter plate. Cells were stimulated with […] to increase intracellular cyclic AMP. Immediately following, compounds were added to the range of final concentrations 0.0-100 μM, in DMSO (not to exceed a final DMSO concentration greater than 1% v/v), and allowed to incubate with the cells for 0.5 h. At the end of the incubation, cells were lysed to stop APJ signaling and cAMP was quantified using a commercially available competitive immunoassay kit that applies homogenous time-resolved florescence energy transfer (TR-FRET). The assay is based on the competition between a europium (Eu) chelate-labeled cAMP donor tracer and cellular cAMP for binding sites on a cAMP-specific monoclonal antibody labeled with an acceptor fluorophore. When antibodies are bound to the cAMP tracer light emissions at 320 nm stimulate the energy transfer from the donor to the acceptor, which in turn emits light at 665 nm. In the presence of competitive unlabeled cAMP (derived from the activity of the receptor or forskolin-stimulated production of cAMP), the labelled cAMP tracer is dissociated from the cAMP antibody, resulting in a loss of FRET signal. The amount of light emitted by the FRET is inversely proportional to the cAMP generated by the cell/receptor system. Potency and efficacy at APJ are reported in reference to the canonical APJ receptor agonist apelin-13 when tested at 1 nM.
Compound competency is reported as the effective concentration required to effect 50% (EC 50) of the control (apelin—13, 1 nM) response in micromole are (μM) units. Compound efficacy (% response) is reported as a percentage of the maximal apein-13 response at 1 nM (control). Potencies were calculated by fitting a four-point logistic curve to concentration response consisting of at least 10 discrete data points spanning effective range of the compounds in the cell-based assay that measures cAMP. In Table 1, the Potency Categories are A, B, C and D. Category A EC50>500 nM; Category B 200<EC50<500 nM; Category C 100<EC50<200 nM; Category D<100 nM.

Structure (SMILES)	EC50 [nM]
CCc1cc(C(=O)O)nc2c(-c3ccccc3)c(C)nn12 [Compound 34, 7-ethyl-2-methyl-3-phenyl-8-hydropyrazolo[1,5-a]pyrimidine-5-carboxylic acid]	> 500
CCCc1cc(C(=O)OCC)nc2c(-c3ccccc3)c(C)nn12 [Compound 35, ethyl 2-methyl-3-phenyl-7-propyl-8-hydropyrazolo[1,5-a]pyrimidine-5-carboxylate]	> 500
CCCc1cc(C(=O)O)nc2c(-c3ccccc3)c(C)nn12 [Compound 36, 2-methyl-3-phenyl-7-propyl-8-hydropyrazolo[1,5-a]pyrimidine-5-carboxylic acid]	> 500
COC(=O)c1nc2c(-c3ccccc3)c(C)nn2c(C(C)C)c1C [Compound 37, methyl 2,6-dimethyl-7-(methylethyl)-3-phenyl-8-hydropyrazolo[1,5-a]pyrimidine-5-carboxylate]	> 500
Cc1nn2c(C(C)C)c(C)c(C(=O)O)nc2c1-c1ccccc1 [Compound 38, 2,6-dimethyl-7-(methylethyl)-3-phenyl-8-hydropyrazolo[1,5-a]pyrimidine-5-carboxylic acid]	> 500
CCOC(=O)c1cc(C(C)C)n2nc(C)c(-c3c(OC)cccc3OC)c2n1 [Compound 40, ethyl 3-(2,6-dimethoxyphenyl)-2-methyl-7-(methylethyl)-8-hydropyrazolo[1,5-a]pyrimidine-5-carboxylate]	> 500
CC(C)c1cc(C(=O)O)nc2c3c(nn12)CCCC3 [Compound 43, 4-(methylethyl)-5,7,8,9,10-pentahydro-5H-pyrimidino[1,2-b]indazole-2-carboxylic acid]	> 500
CCOC(=O)c1cc(C(C)C)n2nc(C)c(-c3ccc(C)cc3C)c2n1 [Compound 44, ethyl 3-(2,4-dimethylphenyl)-2-methyl-7-(methylethyl)-8-hydropyrazolo[1,5-a]pyrimidine-5-carboxylate]	> 500
CCOC(=O)c1cc(C(C)C)n2nc(C)c(-c3c(C)cc(OC)cc3C)c2n1 [Compound 46, ethyl 3-(4-methoxy-2,6-dimethylphenyl)-2-methyl-7-(methylethyl)-8-hydropyrazolo[1,5-a]pyrimidine-5-carboxylate]	> 500
CCOC(=O)c1cc(C(C)C)n2nc(C)c(-c3c(C)cc(F)cc3C)c2n1 [Compound 47, ethyl 3-(4-fluoro-2,6-dimethylphenyl)-2-methyl-7-(methylethyl)-8-hydropyrazolo[1,5-a]pyrimidine-5-carboxylate]	> 500
COc1cc(C)c(-c2c(C)nn3c(C(C)C)cc(C(=O)O)nc23)c(C)c1 [Compound 48, 3-(4-methoxy-2,6-dimethylphenyl)-2-methyl-7-(methylethyl)-8-hydropyrazolo[1,5-a]pyrimidine-5-carboxylic acid]	> 500
Cc1cc(F)cc(C)c1-c1c(C)nn2c(C(C)C)cc(C(=O)O)nc12 [Compound 50, 3-(4-fluoro-2,6-dimethylphenyl)-2-methyl-7-(methylethyl)-8-hydropyrazolo[1,5-a]pyrimidine-5-carboxylic acid]	100 to 200
CCCc1c(C)c(C(=O)OCC)nc2c(-c3c(C)cccc3C)c(C)nn12 [Compound 54]	> 500
CCOC(=O)c1cc(C)n2nc(C)c(-c3c(C)cccc3C)c2n1 [Compound 56, ethyl 3-(2,6-dimethylphenyl)-2,7-dimethyl-8-hydropyrazolo[1,5-a]pyrimidine-5-carboxylate]	> 500
CCOC(=O)c1cc(CC)n2nc(C)c(-c3c(C)cccc3C)c2n1 [Compound 58, ethyl 3-(2,6-dimethylphenyl)-7-ethyl-2-methyl-8-hydropyrazolo[1,5-a]pyrimidine-5-carboxylate]	> 500
CCOC(=O)c1cc(C2CC2)n2nc(C)c(-c3c(C)cccc3C)c2n1 [Compound 59, ethyl 3-(2,6-dimethylphenyl)-7-cyclopropyl-2-methyl-8-hydropyrazolo[1,5-a]pyrimidine-5-carboxylate]	> 500
CCOC(=O)c1cc(C2CCC2)n2nc(C)c(-c3c(C)cccc3C)c2n1 [Compound 60, ethyl 3-(2,6-dimethylphenyl)-7-cyclobutyl-2-methyl-8-hydropyrazolo[1,5-a]pyrimidine-5-carboxylate]	> 500
Cc1cccc(C)c1-c1c(C)nn2c(C3CCC3)cc(C(=O)O)nc12 [Compound 61, 3-(2,6-dimethylphenyl)-7-cyclobutyl-2-methyl-8-hydropyrazolo[1,5-a]pyrimidine-5-carboxylic acid]	100 to 200

Second part, the compound after the results:

EC50 [nM]	Structure (SMILES)
> 500	CCOC(=O)c1cc(C(C)C)n2nc(C)c(-c3c(C)cccc3C)c2n1 [Compound 39, ethyl 3-(2,6-dimethylphenyl)-2-methyl-7-(methylethyl)-8-hydropyrazolo[1,5-a]pyrimidine-5-carboxylate]
< 100	Cc1cccc(C)c1-c1c(C)nn2c(C(C)C)cc(C(=O)O)nc12 [Compound 41, 3-(2,6-dimethylphenyl)-2-methyl-7-(methylethyl)-8-hydropyrazolo[1,5-a]pyrimidine-5-carboxylic acid]
> 500	COc1cccc(OC)c1-c1c(C)nn2c(C(C)C)cc(C(=O)O)nc12 [Compound 42, 3-(2,6-dimethoxyphenyl)-2-methyl-7-(methylethyl)-8-hydropyrazolo[1,5-a]pyrimidine-5-carboxylic acid]
> 500	Cc1ccc(-c2c(C)nn3c(C(C)C)cc(C(=O)O)nc23)c(C)c1 [Compound 45, 3-(2,4-dimethylphenyl)-2-methyl-7-(methylethyl)-8-hydropyrazolo[1,5-a]pyrimidine-5-carboxylic acid]
> 500	CCOC(=O)c1cc(C(C)C)n2nc(C)c(-c3c(C)cccc3F)c2n1 [Compound 49, ethyl 3-(6-fluoro-2-methylphenyl)-2-methyl-7-(methylethyl)-8-hydropyrazolo[1,5-a]pyrimidine-5-carboxylate]
200 to 500	Cc1cccc(F)c1-c1c(C)nn2c(C(C)C)cc(C(=O)O)nc12 [Compound 51, 3-(6-fluoro-2-methylphenyl)-2-methyl-7-(methylethyl)-8-hydropyrazolo[1,5-a]pyrimidine-5-carboxylic acid]
> 500	CCOC(=O)c1cc(C(C)C)n2ncc(-c3c(C)cccc3C)c2n1 [Compound 52, ethyl 3-(2,6-dimethylphenyl)-7-(methylethyl)-8-hydropyrazolo[1,5-a]pyrimidine-5-carboxylate]
> 500	Cc1cccc(C)c1-c1cnn2c(C(C)C)cc(C(=O)O)nc12 [Compound 53, 3-(2,6-dimethylphenyl)-7-(methylethyl)-8-hydropyrazolo[1,5-a]pyrimidine-5-carboxylic acid]
> 500	CCCc1cc(C(=O)O)nc2c(-c3c(C)cccc3C)c(C)nn12 [Compound 55, 3-(2,6-dimethylphenyl)-2-methyl-7-propyl-8-hydropyrazolo[1,5-a]pyrimidine-5-carboxylic acid]
> 500	Cc1cccc(C)c1-c1c(C)nn2c(C)cc(C(=O)O)nc12 [Compound 57, 3-(2,6-dimethylphenyl)-2,7-dimethyl-8-hydropyrazolo[1,5-a]pyrimidine-5-carboxylic acid]
> 500	Cc1cccc(C)c1-c1c(C)nn2c(C(C)C)cc(CO)nc12 [Compound 62, [3-(2,6-dimethylphenyl)-2-methyl-7-(methylethyl)-8-hydropyrazolo[1,5-a]pyrimidin-5-yl]methan-1-ol]
